US11279733B2, “Peptide antibiotics” (priority 2017, dated 2022)
≈ marks a conversion by molar mass, not a printed value. Starred links: 1 amine or outer side, 2 acyl side, 3 side chain; linkers in the order of their positions; H or OH if unused. Positions of bridges follow the written chain, without caps; N, C: chain ends. Non-standard residues stand in square brackets, D forms with d. Residues, ends and D or L forms follow the SMILES beside them. *: point of attachment. X10 = CCCCCCC[C@@H](O)CC(=O)N[C@H](CCN)C(=O)NN(CCN[*:2])C(=O)[*:1]; Decanoyl(3R-OH) = CCCCCCC[C@@H](O)CC(=O)*; Decanoyl = CCCCCCCCCC(=O)*; Nonanoyl = CCCCCCCCC(=O)*; dDab = NCC[C@@H](N)C(=O)O; dDap = NC[C@@H](N)C(=O)O; Dab = NCC[C@H](N)C(=O)O

Tests used:
[1] = in vitro; settings: human
In short: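 Cells were seeded at 4000 per well and allowed to attach for 24 h at 37 °C, 5% CO2, then exposed to compounds for 24 h. Resazurin (5 μM) was added for 2 h at 37 °C and fluorescence read at 560/590 nm. CC50 was derived by curve fitting of dose-dependent growth inhibition.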

[2] = system: K. pneumoniae ATCC BAA-2146, NDM-1 pos; settings: ATCC BAA-2146
In short: (§1)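 Mid-log cultures grown in Mueller Hinton broth at 37° C were tested by 2-fold broth microdilution at 5×10^5 CFU/mL final. Compounds were dissolved in water and tested over a final range of 32 to 0.015 μg/mL.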

[3] = system: P. aeruginosa GN_105, PmxR; settings: GN 105, PmxR
In short: as §1

[4] = system: S. aureus ATCC 25923, MSSA; settings: ATCC 25923
In short: as §1

[5] = system: A. baumannii GN_093 PmxR; settings: GN 093 PmxR
In short: as §1

[6] = system: K. pneumoniae GN_102 PmxR; settings: GN 102 PmxR
In short: as §1

[7] = system: K. pneumoniae ATCC 700603, MDR; settings: ATCC 700603
In short: as §1

[8] = system: P. aeruginosa GN_043, PmxR; settings: for MIC, P. aeruginosa FADDI-PA070, PmxR: strain name as in Table 11
In short: as §1

[9] = system: K. pneumoniae GN_106, PmxR; settings: GN 106, PmxR
In short: as §1

[10] = system: K. pneumoniae ATCC 13883; settings: ATCC 13883
In short: as §1

[11] = system: P. aeruginosa ATCC 27853; settings: ATCC 27853
In short: as §1

[12] = system: E. coli ATCC 25922; settings: ATCC 25922
In short: as §1

[13] = system: A. baumannii ATCC 19606; settings: ATCC 19606
In short: as §1

| Structure (SMILES) | CC50 at 24 h [1] [µM] | MIC K. pneumoniae ATCC BAA-2146, NDM-1 pos [2] [µg/mL] | MIC P. aeruginosa GN_105, PmxR [3] [µg/mL] | MIC S. aureus ATCC 25923, MSSA [4] [µg/mL] | MIC A. baumannii GN_093 PmxR [5] [µg/mL] | MIC K. pneumoniae GN_102 PmxR [6] [µg/mL] | MIC K. pneumoniae ATCC 700603, MDR [7] [µg/mL] | MIC P. aeruginosa GN_043, PmxR [8] [µg/mL] | MIC K. pneumoniae GN_106, PmxR [9] [µg/mL] | MIC K. pneumoniae ATCC 13883 [10] [µg/mL] | MIC P. aeruginosa ATCC 27853 [11] [µg/mL] | MIC E. coli ATCC 25922 [12] [µg/mL] | MIC A. baumannii ATCC 19606 [13] [µg/mL] | MIC P. aeruginosa PA9704, PmxR [3] [µg/mL] | MIC A. baumannii Cl Ptyela 10073 4512:2, PmxR [5] [µg/mL] | MIC K. pneumoniae Cl Koprana 10065 0661:1 PmxR [6] [µg/mL] | MIC, P. aeruginosa FADDI-PA070, PmxR [8] [µg/mL] | MIC K. pneumoniae Cl 183-16357-20352, PmxR [9] [µg/mL] |
| --- | --- | --- | --- | --- | --- | --- | --- | --- | --- | --- | --- | --- | --- | --- | --- | --- | --- | --- |
| CCCCCCCCC(=O)N[C@H](CN)C(=O)N[C@H]1CCNC(=O)[C@H](CC(C)C)NC(=O)[C@H](CCN)NC(=O)[C@H](CCN)NC(=O)[C@H](CC(C)C)NC(=O)[C@@H](Cc2ccccc2)NC(=O)[C@H](CCN)NC1=O [compound 9191, nC8CO-D-Dap-cyc[L-Dab-L-Dab-D-Phe-L-Leu-L-Dab-L-Dab-L-Leu]] (Nonanoyl-[dDap][Dab][Dab][dF]L[Dab][Dab]L; lactam 2-C) | > 300 | 8 (≈ 8 µM) | 2 (≈ 2 µM) | 32 (≈ 32 µM) | >32 | 8 (≈ 8 µM) | 8 (≈ 8 µM) | 2 (≈ 2 µM) | 16 (≈ 16 µM) | 8 (≈ 8 µM) | 4 (≈ 4 µM) | 4 (≈ 4 µM) | >32 | – | – | – | – | – |
| CCCCCCCCCC(=O)N[C@H](CN)C(=O)N[C@H]1CCNC(=O)[C@H](CC(C)C)NC(=O)[C@H](CCN)NC(=O)[C@H](CCN)NC(=O)[C@H](CC(C)C)NC(=O)[C@@H](Cc2ccccc2)NC(=O)[C@H](CCN)NC1=O [compound 9192, nC9CO-D-Dap-cyc[L-Dab-L-Dab-D-Phe-L-Leu-L-Dab-L-Dab-L-Leu]] (Decanoyl-[dDap][Dab][Dab][dF]L[Dab][Dab]L; lactam 2-C) | 224 | 8 (≈ 7.89 µM) | 2 (≈ 1.97 µM) | 8 (≈ 7.89 µM) | 4 (≈ 3.94 µM) | 8 (≈ 7.89 µM) | 8 (≈ 7.89 µM) | 4 (≈ 3.94 µM) | 8 (≈ 7.89 µM) | 8 (≈ 7.89 µM) | 4 (≈ 3.94 µM) | 2 (≈ 1.97 µM) | 32 (≈ 31.5 µM) | – | – | – | – | – |
| CCCCCCC[C@@H](O)CC(=O)N[C@H](CCN)C(=O)N[C@H]1CCNC(=O)[C@H](CC(C)C)NC(=O)[C@H](CCN)NC(=O)[C@H](CCN)NC(=O)[C@@H](Cc2ccccc2)NC(=O)[C@H](CC(C)C)NC(=O)[C@H](CCN)NC1=O [compound 9194, 3(R)-OH-nC9CO-D-Dab-cyc[L-Dab-L-Dab-L-Leu-D-Phe-L-Dab-L-Dab-L-Leu]] ({Decanoyl(3R-OH)}-[dDab][Dab][Dab]L[dF][Dab][Dab]L; lactam 2-C) | > 300 | >32 | >32 | 32 (≈ 30.6 µM) | >32 | >32 | >32 | >32 | >32 | >32 | 32 (≈ 30.6 µM) | 32 (≈ 30.6 µM) | >32 | – | – | – | – | – |
| CCCCCCC[C@@H](O)CC(=O)N[C@H](CCN)C(=O)N[C@H]1CCNC(=O)N(CC(C)C)NC(=O)[C@H](CCN)NC(=O)[C@H](CCN)NC(=O)[C@H](CC(C)C)NC(=O)[C@@H](Cc2ccccc2)NC(=O)[C@@H](CCN)NC1=O [compound 9416, 3(R)OH-nC9CO-D-Dab-cyc[L-Dab-L-Dab-D-Phe-L-Leu-L-Dab-L-Dab-(aza-Leu)]] | > 300 | 16 (≈ 15.3 µM) | – | 32 (≈ 30.6 µM) | – | – | 16 (≈ 15.3 µM) | – | – | 16 (≈ 15.3 µM) | 4 (≈ 3.83 µM) | 16 (≈ 15.3 µM) | >32 | >32 | >32 | >32 | >32 | >32 |
| CCCCCCC[C@@H](O)CC(=O)N[C@H](CCN)C(=O)NN1CCNC(=O)[C@H](CC(C)C)NC(=O)[C@H](CCN)NC(=O)[C@H](CCN)NC(=O)[C@H](CC(C)C)NC(=O)[C@@H](Cc2ccccc2)NC(=O)[C@H](CCN)NC1=O [compound 9417, 3(R)OH-nC9CO-D-Dab-cyc[(aza-Dab)-L-Dab-D-Phe-L-Leu-L-Dab-L-Dab-L-Leu]] ([Dab][dF]L[Dab][Dab]L; linker N-C via X10) | > 300 | >32 | – | 8 (≈ 7.65 µM) | – | – | >32 | – | – | >32 | 16 (≈ 15.3 µM) | >32 | >32 | >32 | >32 | >32 | >32 | >32 |
